Five molecules from US7135473B2, “Cyclic diamine compound with condensed-ring groups” (Kowa Co., Ltd., priority 2001, dated 2006) can be followed below.

The subject of assay [1] is U937 cells adhered to HUVEC stimulated by TNFα. The assay can be described thus: Inhibitory effect on cell adhesion, stimulation by TNFα. It counts as cell-based. As to conditions: Homo sapiens, compound at 1 μM, read-out: Inhibitory activity against cell adhesion, Percent inhibition (%), Stimulation by TNFα. On the procedure: (§1) This test was conducted by reference to the method of Ross et al. (J. Biol. Chem., 267, 8537–8543(1992). More specifically, after human umbilical venous endothelial cells (HUVEC) were cultured on a 48-well plate to confluent growth, IL-1β or TNFα was added thereto. After culturing for 5 hours, U937, which is a human monocytic/histocytic cell fluorescence-labeled with PKH2(product of Dainippon Pharmaceutical Co., Ltd.), was added in a proportion of 1×10^6 cells per well. After the plate was left at rest at room temperature for 1 hour, unadhered U937 was washed out and lysed in 1% Triton X-100 to measure a remaining fluorescence intensity (excitation wavelength: 480 nm; measuring wavelength: 530 nm). HUVEC and U937 were cultured in EGM-2 (product of Sanko Junyaku K. K.) and 10% FCS-containing RPMI1640, respectively. Each test agent was added to HUVEC upon the addition of IL-1β or TNFα and to U937 24 hours prior to the cell adhesion test. The inhibitory activity was calculated out according to the equation [100−(C−B)/(A−B)×100(%)], wherein A is the number of U937 cells adhered to HUVEC stimulated by IL-1β or TNFα when no test agent was added, B is the number of U937 cells adhered to HUVEC not stimulated by IL-1β or TNFα when no test agent was added, and C is the number of U937 cells adhered to HUVEC stimulated by IL-1β or TNFα when the test agent was added. As control compounds, Test Compound 1 described in Japanese Patent Application Laid-Open No. 9–143075 and dilazep described in Japanese Patent Application Laid-Open No. 11–92382 were simultaneously evaluated.

Assay [2] relates to U937 cells adhered to HUVEC stimulated by IL-1β. The assay can be described thus: Inhibitory effect on cell adhesion, stimulation by IL-1β. In kind it is cell-based. The note with it: Homo sapiens, compound at 1 μM, read-out: Inhibitory activity against cell adhesion, Percent inhibition (%), Stimulation by IL-1β. On the procedure:
as §1

Turning to `COc1cc(C(=O)OCCCN2CCCN(CCCOC(=O)c3cc(OC)c(OC)c(OC)c3)CC2)cc(OC)c1OC` [Dilazep, dilazep, reference compound], the inhibition at 1 µM amounted to 12% in assay [1] and 0% in assay [2].

Regarding `COc1cc2cc(CCN3CCCN(CCc4ccc5c(OC)c(OC)c(OC)cc5c4)CC3)ccc2c(OC)c1OC` [Example 6, N,N′-bis[2-(5,6,7-trimethoxynaphthalen-2-yl)ethyl]homopiperazine], the inhibition at 1 µM in assay [1] was 69%; in assay [2] it was 57%.

In the case of `COc1cc2sc(CN3CCCN(Cc4cc5c(OC)c(OC)c(OC)cc5s4)CC3)cc2c(OC)c1OC` [Example 41, N,N′-bis[(4,5,6-trimethoxybenzothiophen-2-yl)methyl]homopiperazine], the figures for the inhibition at 1 µM in assay [1] and in assay [2] were 27% and 52%, respectively.

As to `COc1cc2nc(CN3CCCN(Cc4nc5cc(OC)c(OC)c(OC)c5s4)CC3)sc2c(OC)c1OC` [Example 33, N,N′-bis[(5,6,7-trimethoxybenzothiazol-2-yl)methyl]homopiperazine], the inhibition at 1 µM in assay [1] was 79%; in assay [2] it was 64%.

Take `COc1cc2nc(CN3CCN(Cc4nc5cc(OC)c(OC)c(OC)c5s4)CC3)sc2c(OC)c1OC` [Example 32, N,N′-bis[(5,6,7-trimethoxybenzothiazol-2-yl)methyl]piperazine]: the figures for the inhibition at 1 µM in assay [1] and in assay [2] were 52% and 54%, respectively.

As a reminder, the inhibition is the relative decrease from the control value, in per cent.
